Data from patent US20230033195A1, “METHODS AND COMPOSITIONS FOR IMPROVING COGNITIVE FUNCTION” (THE JOHNS HOPKINS UNIVERSITY, priority 2011, published 2023).

Test system: aged-impaired (AI) rats
Assay: eight-arm Radial Arm Maze (RAM) task with one-hour delay, spatial memory retention
Type: in vivo, rat
Details: for average no. of errors ± SEM: one-hour delay, vehicle 2.00 ± 0.42
Method: FIG. 3 depicts the effects of administering levetiracetam on the spatial memory retention of ten aged-impaired rats (AI) in an eight-arm Radial Arm Maze (RAM) test. Six treatment conditions were employed: vehicle control, levetiracetam (1.25 mg/kg), levetiracetam (2.5 mg/kg), levetiracetam (5 mg/kg), levetiracetam (10 mg/kg) and levetiracetam (20 mg/kg). In the RAM task used, there was a one-hour delay between presentation of a subset of arms (5 arms available and 3 arms blocked) and completion of the eight-arm win-shift task (eight arms available). Rats were pre-treated 30 - 40 minutes before daily trials with a one-time drug/control treatment. The number of errors made by the rats after the delay was used as a measure of spatial memory retention. Errors were defined as instances when rats entered an arm from which food had already been retrieved in the pre-delay component of the trial or when rats re-visited an arm in the post-delay session that had already been visited. Paired t-tests were used to compare the number of errors between different doses of levetiracetam and vehicle control.
The effects of levetiracetam on the spatial memory retention of aged-impaired (AI) rats were assessed in a Radial Arm Maze (RAM) behavioral task using vehicle control and five different dosage levels of levetiracetam (1.25 mg/kg/day, 2.5 mg/kg/day, 5 mg/kg/day, 10 mg/kg/day and 20 mg/kg/day). RAM behavioral tasks were preformed on ten AI rats. All six treatment conditions were tested on all ten rats, as described above for the MWM test.
The RAM apparatus used consisted of eight equidistantly-spaced arms. An elevated maze arm (7 cm width x 75 cm length) projected from each facet of an octagonal center platform (30 cm diameter, 51.5 cm height). Clear side walls on the arms were 10 cm high and were angled at 65° to form a trough. A food well (4 cm diameter, 2 cm deep) was located at the distal end of each arm. Froot Loops™ (Kellogg Company) were used as rewards. Blocks constructed of Plexiglas™ (30 cm height x 12 cm width) could be positioned to prevent entry to any arm. Numerous extra maze cues surrounding the apparatus were also provided.
The AI rats were initially subjected to a pre-training test (Chappell et al. Neuropharmacology 37: 481-487, 1998). The pre-training test consisted of a habituation phase (4 days), a training phase on the standard win-shift task (18 days) and another training phase (14 days) in which a brief delay was imposed between presentation of a subset of arms designated by the experimenter (e.g., 5 arms available and 3 arms blocked) and completion of the eight-arm win-shift task (i.e., with all eight arms available).
In the habituation phase, rats were familiarized to the maze for an 8-minute session on four consecutive days. In each of these sessions food rewards were scattered on the RAM, initially on the center platform and arms and then progressively confined to the arms. After this habituation phase, a standard training protocol was used, in which a food pellet was located at the end of each arm. Rats received one trial each day for 18 days. Each daily trial terminated when all eight food pellets had been obtained or when either 16 choices were made or 15 minutes had elapsed. After completion of this training phase, a second training phase was carried out in which the memory demand was increased by imposing a brief delay during the trial. At the beginning of each trial, three arms of the eight-arm maze were blocked. Rats were allowed to obtain food on the five arms to which access was permitted during this initial 'information phase' of the trial. Rats were then removed from the maze for 60 seconds, during which time the barriers on the maze were removed, thus allowing access to all eight arms. Rats were then placed back onto the center platform and allowed to obtain the remaining food rewards during this 'retention test' phase of the trial. The identity and configuration of the blocked arms varied across trials. […]

Compound: CC[C@@H](C(N)=O)N1CCCC1=O [levetiracetam, (2S)-2-(2-oxopyrrolidin-1-yl) butanamide]
- average no. of errors ± SEM (5 mg/kg/day i.p.): 0.75 ± 0.32
- memory performance relative to vehicle control (5 mg/kg/day, t(9) = 2.18, p = 0.057): significantly improved memory performance
- average no. of errors ± SEM (10 mg/kg/day i.p.): 0.80 ± 0.27
- memory performance relative to vehicle control (10 mg/kg/day, t(9) = 2.37, p = 0.042): significantly improved memory performance
- performance of AI rats in the radial maze task (levetiracetam 20 mg/kg): fails to improve the performace
- effective in reducing the number of errors, on its own (levetiracetam i.p. 1.25 mg/kg): not
- effective in reducing the number of errors, on its own (levetiracetam i.p. 2.5 mg/kg): not
- effective in reducing the number of errors, on its own (levetiracetam i.p. 5-10 mg/kg): effective
